Laboratory results from patent US9045450B2, “Method for chemical synthesis of antrocin and use thereof for suppressing non-small cell lung cancer” (KAIYEW INVESTMENT CORP., priority 2011, dated 2015).

Key:
[1] = test system: H441 cells; experiment: Cytotoxicity / cell proliferation, sulforhodamine B; type: cell-based, human; conditions: H441, antrocin 0.5-10 μM, two days, FIG. 4 (A)
Protocol: (§1) Human lung cancer cell lines (CL1-0, CL1-5, H1975, H441, PC9, A549) and human bronchial epithelia cell lines (BEAS-2B) were obtained from the Institute of Clinical Medicine, Taipei Medical University. The cells were grown and maintained in DMEM medium (Dulbecco's Modified Eagle's Medium and RPMI basal medium supplemented with 10% fetal bovine serum, 2 mM glutamine, […] streptomycin, and 100 U/ml penicillin in a wet incubator at 5% CO2.
(§2) Lung cancer cell were grown in a medium supplemented with 10% fetal bovine serum until the cells grew to approximately 80% of their full-blown size. Old culture solution was drained, the lung cancer cells were washed with PBS buffer solution (phosphate buffered saline), and 10 ml of serum-free culture medium was added. Different pharmaceutical drugs were added according to experimental purposes, all reactions were carried out in an incubator at 37° C.
(§3) Human lung cancer cells (CL1-0, CL1-5, H1975, H441, PC9, A549) and human bronchial epithelial cells (BEAS-2B) were seeded in 96-well culture plates (2000 cells/well) and incubated overnight in 100 μl complete DMEM. […] After two days, total number of human cells in each well was measured using sulforhodamine B (a fluorescent protein dye). […] The optical density was measured at 562 nm by a microtiter plate detector. […]

[2] = test system: H1975 cells; experiment: as above; type: cell-based, human; conditions: H1975, antrocin 0.5-10 μM, two days, FIG. 4 (A)
Protocol: as §1, §2, §3

[3] = test system: caspase-3 enzyme; experiment: Protein expression in H441 cells (FIG. 6); type: cell-based, human; conditions: increasing dose
Text: (§4) The inhibitory effect of antrocin on protein expression is presented as relative multiple.Beta-actin protein was the internal reference (loading control).

[4] = test system: XIAP; experiment: Protein expression in H441 cells (FIG. 6); type: cell-based, human
Text: as §4

[5] = test system: cyclin D1; experiment: Protein expression in H441 cells (FIG. 6); type: cell-based, human
Text: as §4

[6] = test system: H441-L2G cells; experiment: Lung tumorigenesis in vivo, bioluminescence imaging and survival; design: species or system non-obese diabetic/severe combined immunodeficient mice; conditions: for tumor growth: daily intraperitoneal injection
Protocol: […] cells (6×10^5/100 μl PBS) were intravenously injected into immunodeficient mice via lateral tail vein. Antrocin treatments (low dose of 5 mg/kg/day and high dose of 10 mg/kg/day) were performed by daily intraperitoneal injection into tumor-bearing mice over a period of four weeks. Weekly observations were performed and data were recorded for (A) VIS images, (B) Tumor growth, (C) Body weights, and (D) Survival curves.
(§5) The present invention further investigated anticancer effect of antrocin in vivo. H441-L2G cells expressing firefly luciferase and green fluorescent protein were implanted by intravenous injections via the lateral tail vein (6×10^5/100 μl PBS) into non-obese diabetic/severe combined immunodeficient mice. Daily intraperitoneal injections of antrocin (two groups of mice, a low dose of 5 mg/kg/day and a high dose of 10 mg/kg/day) were given over a period of four weeks to observe tumor growth.
Firefly luminescence genes (firefly luciferase) was introduced into H441 lung cancer stem cells by transgenesis, lung cancer cells (containing firefly luminescence genes) were then isolated from H441 lung cancer stem cells by FACS (Fluorescence-activated cell sorting) and implanted into immunodeficient mice subcutaneously or into the circulation system via the tail vein. IVIS imaging system (IVIS® Imaging System 200 Series, Xenogen) was used in the present embodiment for bioluminescent imaging. All mice were introduced with 150 mg/kg D-luciferin by intraperitoneal injection, after 10 minutes the mice were fixed in the darkroom of the IVIS200, the highly sensitive CCD camera of the IVIS 200 was used to detect the cold light radiated by firefly luminescence genes in H441 cancer cells. All mice were imaged for 120 seconds and the imaging time was shortened when the signal strength was saturated. All mice were anesthetized (2% isoflurane and 98% oxygen gas) and unconscious throughout the entire imaging process. Tumor sizes and signal strength radiated by the cold-light were compared and analyzed by using a software package of the IVI200. The inhibitory effect of antrocin on human lung cancer cells was assessed by using this bio-illumination-imaging system.
as §5, with “investigated the” for “investigated”, “immunodeficiency” for “immunodeficient”, “small” for “low”, “large” for “high”

[7] = test system: human non-small cell lung cancer cells (CL1-0, CL1-5, H1975, H441, PC9, A549); experiment: Cytotoxicity / cell proliferation, sulforhodamine B; type: cell-based; conditions: NSCLC cell lines, antrocin 0.5-10 μM, two days, FIG. 4 (A)
Protocol: as §1, §2, §3

Which results are given for `C=C1CC[C@H]2C(C)(C)CCC[C@@]23C(=O)OC[C@@H]13` [antrocin]?
inhibition of cancer cell growth/proliferation [1]: most robust inhibitions; inhibition of cancer cell growth/proliferation [2]: most robust inhibitions; activation of caspase enzyme 3 [3]: markedly activated; inhibition of XIAP protein expression [4]: dose-dependently inhibited; inhibition of cyclin D1 protein expression [5]: dose-dependently inhibited; increase of median survival time ([6]; at the end of the experiment (the fiftieth day)): at least 60%; mice that survived for longer than 50 days ([6]; low dose 5 mg/kg/day): 75%; tumor growth ([6]; low dose 5 mg/kg/day, after two weeks): inhibited after two weeks in half of the mice; tumor growth ([6]; low dose 5 mg/kg/day, third week): tumor growth was observed in most of these mice; median survival ([6]; treated group, control group 28 days, FIG. 7 (D)): > 50 days; inhibitory effect on cancer cell proliferation [7]: significant inhibitory effect
